Test results as given in PMC11087268, “A folate inhibitor exploits metabolic differences in Pseudomonas aeruginosa for narrow-spectrum targeting” (Nature Microbiology, 2024).
Values after ≈ are worked out from the molar mass of the structure shown.

Experiments:
E. coli MG1655 = assay: Growth of E. coli MG1655 in TMI-supplemented media with fluorofolin; type: cell-based, Escherichia coli
[1] = system: Acinetobacter baumannii ATCC 17978; assay: MIC (WuXi, Mueller–Hinton broth) against A. baumannii ATCC 17978; type: cell-based; conditions: ATCC17978, performed by WuXi
Experimental: Bacterial colonies (4–8) of strains of interest were vortexed in saline and adjusted to an OD600 of 0.2. Strains were diluted 1:200 into CAMHB media in 96-well plates. Antibiotics were serially diluted 1:3 in DMSO, and 1 μl of each dilution was added to bacteria. The plates were incubated for 18–20 h at 37 °C before observation.

Nc1nc(N)c2c(ccc3c2ccn3Cc2ccnc(F)c2)n1 [fluorofolin]
rescue of growth inhibition by TMI supplementation (E. coli MG1655; E. coli MG1655, 0.3 mM TMI, fluorofolin 2× MIC): could also be rescued with TMI supplementation
OD600 of E. coli MG1655 (E. coli MG1655; Fluorofolin + TMI, Time 10 min): 0.007
OD600 of E. coli MG1655 (E. coli MG1655; Fluorofolin + TMI, Time 70 min): 0.0105
OD600 of E. coli MG1655 (E. coli MG1655; Fluorofolin + TMI, Time 80 min): 0.012
OD600 of E. coli MG1655 (E. coli MG1655; Fluorofolin + TMI, Time 90 min): 0.0135
OD600 of E. coli MG1655 (E. coli MG1655; Fluorofolin + TMI, Time 100 min): 0.015
OD600 of E. coli MG1655 (E. coli MG1655; Fluorofolin + TMI, Time 110 min): 0.0175
OD600 of E. coli MG1655 (E. coli MG1655; Fluorofolin + TMI, Time 120 min): 0.0195
OD600 of E. coli MG1655 (E. coli MG1655; Fluorofolin + TMI, Time 130 min): 0.0225
OD600 of E. coli MG1655 (E. coli MG1655; Fluorofolin + TMI, Time 140 min): 0.025
OD600 of E. coli MG1655 (E. coli MG1655; Fluorofolin + TMI, Time 150 min): 0.028
OD600 of E. coli MG1655 (E. coli MG1655; Fluorofolin + TMI, Time 160 min): 0.0305
OD600 of E. coli MG1655 (E. coli MG1655; Fluorofolin + TMI, Time 170 min): 0.0345
OD600 of E. coli MG1655 (E. coli MG1655; Fluorofolin + TMI, Time 180 min): 0.038
OD600 of E. coli MG1655 (E. coli MG1655; Fluorofolin + TMI, Time 190 min): 0.042
OD600 of E. coli MG1655 (E. coli MG1655; Fluorofolin + TMI, Time 200 min): 0.0465
OD600 of E. coli MG1655 (E. coli MG1655; Fluorofolin + TMI, Time 210 min): 0.052
OD600 of E. coli MG1655 (E. coli MG1655; Fluorofolin + TMI, Time 220 min): 0.0575
OD600 of E. coli MG1655 (E. coli MG1655; Fluorofolin + TMI, Time 230 min): 0.0625
OD600 of E. coli MG1655 (E. coli MG1655; Fluorofolin + TMI, Time 240 min): 0.068
OD600 of E. coli MG1655 (E. coli MG1655; Fluorofolin + TMI, Time 250 min): 0.0745
OD600 of E. coli MG1655 (E. coli MG1655; Fluorofolin + TMI, Time 260 min): 0.0815
OD600 of E. coli MG1655 (E. coli MG1655; Fluorofolin + TMI, Time 270 min): 0.0875
OD600 of E. coli MG1655 (E. coli MG1655; Fluorofolin + TMI, Time 280 min): 0.094
OD600 of E. coli MG1655 (E. coli MG1655; Fluorofolin + TMI, Time 290 min): 0.1
OD600 of E. coli MG1655 (E. coli MG1655; Fluorofolin + TMI, Time 300 min): 0.105
OD600 of E. coli MG1655 (E. coli MG1655; Fluorofolin + TMI, Time 310 min): 0.1105
OD600 of E. coli MG1655 (E. coli MG1655; Fluorofolin + TMI, Time 320 min): 0.1155
OD600 of E. coli MG1655 (E. coli MG1655; Fluorofolin + TMI, Time 330 min): 0.1215
OD600 of E. coli MG1655 (E. coli MG1655; Fluorofolin + TMI, Time 340 min): 0.1265
OD600 of E. coli MG1655 (E. coli MG1655; Fluorofolin + TMI, Time 350 min): 0.132
OD600 of E. coli MG1655 (E. coli MG1655; Fluorofolin + TMI, Time 360 min): 0.136
OD600 of E. coli MG1655 (E. coli MG1655; Fluorofolin + TMI, Time 370 min): 0.14
OD600 of E. coli MG1655 (E. coli MG1655; Fluorofolin + TMI, Time 380 min): 0.1435
OD600 of E. coli MG1655 (E. coli MG1655; Fluorofolin + TMI, Time 390 min): 0.147
OD600 of E. coli MG1655 (E. coli MG1655; Fluorofolin + TMI, Time 400 min): 0.151
OD600 of E. coli MG1655 (E. coli MG1655; Fluorofolin + TMI, Time 410 min): 0.155
OD600 of E. coli MG1655 (E. coli MG1655; Fluorofolin + TMI, Time 420 min): 0.1585
OD600 of E. coli MG1655 (E. coli MG1655; Fluorofolin + TMI, Time 430 min): 0.163
OD600 of E. coli MG1655 (E. coli MG1655; Fluorofolin + TMI, Time 440 min): 0.167
OD600 of E. coli MG1655 (E. coli MG1655; Fluorofolin + TMI, Time 450 min): 0.1715
OD600 of E. coli MG1655 (E. coli MG1655; Fluorofolin + TMI, Time 460 min): 0.176
OD600 of E. coli MG1655 (E. coli MG1655; Fluorofolin + TMI, Time 470 min): 0.181
OD600 of E. coli MG1655 (E. coli MG1655; Fluorofolin + TMI, Time 480 min): 0.1855
OD600 of E. coli MG1655 (E. coli MG1655; Fluorofolin + TMI, Time 490 min): 0.19
OD600 of E. coli MG1655 (E. coli MG1655; Fluorofolin + TMI, Time 500 min): 0.1955
OD600 of E. coli MG1655 (E. coli MG1655; Fluorofolin + TMI, Time 510 min): 0.2005
OD600 of E. coli MG1655 (E. coli MG1655; Fluorofolin + TMI, Time 520 min): 0.2055
OD600 of E. coli MG1655 (E. coli MG1655; Fluorofolin + TMI, Time 530 min): 0.21
OD600 of E. coli MG1655 (E. coli MG1655; Fluorofolin + TMI, Time 540 min): 0.2145
OD600 of E. coli MG1655 (E. coli MG1655; Fluorofolin + TMI, Time 970 min): 0.33
OD600 of E. coli MG1655 (E. coli MG1655; Fluorofolin, Time 10 min): -0.0085
OD600 of E. coli MG1655 (E. coli MG1655; Fluorofolin, Time 70 min): -0.005
OD600 of E. coli MG1655 (E. coli MG1655; Fluorofolin, Time 80 min): -0.003
OD600 of E. coli MG1655 (E. coli MG1655; Fluorofolin, Time 90 min): -0.0015
OD600 of E. coli MG1655 (E. coli MG1655; Fluorofolin, Time 100 min): 0.001
OD600 of E. coli MG1655 (E. coli MG1655; Fluorofolin, Time 110 min): 0.0035
OD600 of E. coli MG1655 (E. coli MG1655; Fluorofolin, Time 120 min): 0.006
OD600 of E. coli MG1655 (E. coli MG1655; Fluorofolin, Time 130 min): 0.009
OD600 of E. coli MG1655 (E. coli MG1655; Fluorofolin, Time 140 min): 0.0125
OD600 of E. coli MG1655 (E. coli MG1655; Fluorofolin, Time 150 min): 0.0155
OD600 of E. coli MG1655 (E. coli MG1655; Fluorofolin, Time 160 min): 0.018
OD600 of E. coli MG1655 (E. coli MG1655; Fluorofolin, Time 170 min): 0.02
OD600 of E. coli MG1655 (E. coli MG1655; Fluorofolin, Time 180 min): 0.023
OD600 of E. coli MG1655 (E. coli MG1655; Fluorofolin, Time 190 min): 0.0255
OD600 of E. coli MG1655 (E. coli MG1655; Fluorofolin, Time 200 min): 0.028
OD600 of E. coli MG1655 (E. coli MG1655; Fluorofolin, Time 210 min): 0.0305
OD600 of E. coli MG1655 (E. coli MG1655; Fluorofolin, Time 220 min): 0.033
OD600 of E. coli MG1655 (E. coli MG1655; Fluorofolin, Time 230 min): 0.035
OD600 of E. coli MG1655 (E. coli MG1655; Fluorofolin, Time 240 min): 0.0365
OD600 of E. coli MG1655 (E. coli MG1655; Fluorofolin, Time 250 min): 0.0395
OD600 of E. coli MG1655 (E. coli MG1655; Fluorofolin, Time 260 min): 0.0405
OD600 of E. coli MG1655 (E. coli MG1655; Fluorofolin, Time 270 min): 0.042
OD600 of E. coli MG1655 (E. coli MG1655; Fluorofolin, Time 280 min): 0.044
OD600 of E. coli MG1655 (E. coli MG1655; Fluorofolin, Time 290 min): 0.0455
OD600 of E. coli MG1655 (E. coli MG1655; Fluorofolin, Time 300 min): 0.0475
OD600 of E. coli MG1655 (E. coli MG1655; Fluorofolin, Time 310 min): 0.0485
OD600 of E. coli MG1655 (E. coli MG1655; Fluorofolin, Time 320 min): 0.0505
OD600 of E. coli MG1655 (E. coli MG1655; Fluorofolin, Time 330 min): 0.0515
OD600 of E. coli MG1655 (E. coli MG1655; Fluorofolin, Time 340 min): 0.053
OD600 of E. coli MG1655 (E. coli MG1655; Fluorofolin, Time 350 min): 0.0545
OD600 of E. coli MG1655 (E. coli MG1655; Fluorofolin, Time 360 min): 0.0555
OD600 of E. coli MG1655 (E. coli MG1655; Fluorofolin, Time 370 min): 0.0565
OD600 of E. coli MG1655 (E. coli MG1655; Fluorofolin, Time 380 min): 0.0575
OD600 of E. coli MG1655 (E. coli MG1655; Fluorofolin, Time 390 min): 0.058
OD600 of E. coli MG1655 (E. coli MG1655; Fluorofolin, Time 400 min): 0.059
OD600 of E. coli MG1655 (E. coli MG1655; Fluorofolin, Time 410 min): 0.0595
OD600 of E. coli MG1655 (E. coli MG1655; Fluorofolin, Time 420 min): 0.0605
OD600 of E. coli MG1655 (E. coli MG1655; Fluorofolin, Time 430 min): 0.061
OD600 of E. coli MG1655 (E. coli MG1655; Fluorofolin, Time 440 min): 0.0615
OD600 of E. coli MG1655 (E. coli MG1655; Fluorofolin, Time 450 min): 0.062
OD600 of E. coli MG1655 (E. coli MG1655; Fluorofolin, Time 460 min): 0.062
OD600 of E. coli MG1655 (E. coli MG1655; Fluorofolin, Time 470 min): 0.063
OD600 of E. coli MG1655 (E. coli MG1655; Fluorofolin, Time 480 min): 0.0635
OD600 of E. coli MG1655 (E. coli MG1655; Fluorofolin, Time 490 min): 0.0635
OD600 of E. coli MG1655 (E. coli MG1655; Fluorofolin, Time 500 min): 0.064
OD600 of E. coli MG1655 (E. coli MG1655; Fluorofolin, Time 510 min): 0.064
OD600 of E. coli MG1655 (E. coli MG1655; Fluorofolin, Time 520 min): 0.064
OD600 of E. coli MG1655 (E. coli MG1655; Fluorofolin, Time 530 min): 0.064
OD600 of E. coli MG1655 (E. coli MG1655; Fluorofolin, Time 540 min): 0.064
OD600 of E. coli MG1655 (E. coli MG1655; Fluorofolin, Time 970 min): 0.053
MIC [1]: 0.8 µg/mL (≈ 2.59 µM)
